Reference: patent publication US12728104B2, “Therapeutic methods for preventing tumor metastasis and tumor recurrence” (LUNELLA BIOTECH, INC., priority 2020, dated 2026)
pIC50: −log10 of the molar value. “Also recorded” adds a separate entry of the source.

Legend:
MDA-MB-231 tumor growth = assay: Tumor growth assay, MDA-MB-231 cells on the chorio-allantoic membrane (CAM) in chicken eggs; assay type: in vivo, human; conditions: treated daily for 8 days
Procedure: To experimentally evaluate their functional effects in vivo, the inventors used MDA-MB-231 cells and the well-established chorio-allantoic membrane (CAM) assay in chicken eggs, to quantitatively measure tumor growth and metastasis. An inoculum of 1×10^6 MDA-MB-231 cells was added onto the CAM of each egg (day E9) and then eggs were randomized into groups. On day E10, tumors were detectable and they were then treated daily for 8 days with vehicle alone (1% DMSO in PBS) or the three Mitoriboscin compounds. In parallel, the inventors also evaluated the activity of another mitochondrial inhibitor, namely butene-1,4-bis-triphenyl-phosphonium (Bis-TPP), which was identified as an inhibitor of 3D-mammosphere formation in MCF7 cells, with an IC-50 of less than 0.5 μM.
After 8 days of drug administration (on day E18), all tumors were weighed, and the lower CAM was collected to evaluate the number of metastatic cells, as analyzed by qPCR with specific primers for Human Alu sequences.
(§1) a) Preparation of Chicken Embryos. Fertilized White Leghorn eggs were incubated at 37.5° C. with 50% relative humidity for 9 days. At that moment (E9), the chorioallantoic membrane (CAM) was dropped down by drilling a small hole through the eggshell into the air sac, and a 1 cm^2 window was cut in the eggshell above the CAM (19-23).
b) Amplification and Grafting of Tumor Cells. […]

MDA-MB-231 metastasis = assay: Metastasis assay, MDA-MB-231 cells in the CAM assay (qPCR for Human Alu sequences in lower CAM); assay type: in vivo
Procedure: MDA-MB-231 cells and the CAM assay in chicken eggs were used to quantitatively measure spontaneous tumor mestastasis. An inoculum of 1×10^6 MDA-MB-231 cells was added onto the CAM of each egg (on day E9) and then eggs were then randomized into groups. On day E10, tumors were detectable and they were then treated daily for 8 days with vehicle alone (1% DMSO in PBS) or the four mitochondrial inhibitors. After 8 days of drug administration, the lower CAM was collected to evaluate the number of metastatic cells, as analyzed by qPCR with specific primers for Human Alu sequences. […] The same procedure may be used to evaluate the anti-metastasis and anti-recurrence effects of other mitochondrial inhibitors.
as §1
b) Amplification and Grafting of Tumor Cells. The MDA-MB-231 tumor cell line was cultivated in DMEM medium supplemented with 10% FBS and 1% penicillin/streptomycin. On day E9, cells were detached with trypsin, washed with complete medium and suspended in graft medium. An inoculum of 1×10^6 cells was added onto the CAM of each egg (E9) and then eggs were randomized into groups (19-23).
d) Metastasis Assays. On day E18, a 1 cm^2 portion of the lower CAM was collected to evaluate the number of metastatic cells in 8 samples per group (n=8). Genomic DNA was extracted from the CAM (commercial kit) and analyzed by qPCR with specific primers for Human Alu sequences. Calculation of Cq for each sample, mean Cq and relative amounts of metastases for each group are directly managed by the Bio-Rad® CFX Maestro software. A one-way ANOVA analysis with post-tests was performed on all the data (19-23).

chick embryo = assay: Embryo tolerability assay (chick embryo toxicity); assay type: in vivo; conditions: for Alive / Dead: number of embryos
Procedure: a) Preparation of Chicken Embryos. […] At that moment (E9), the chorioallantoic membrane (CAM) was dropped down by drilling a small hole through the eggshell into the air sac, and a 1 cm^2 window was cut in the eggshell above the CAM (19-23).
e) Embryo Tolerability Assay: Before each administration, the treatment tolerability was evaluated by scoring the number of dead embryos.

MCF7 cells = conditions: cited from earlier work
MDA-MB-231 cells = conditions: cited from earlier work
[1] = tested on: CSCs in cell lines derived from 8 different cancer types; conditions: cell lines from 8 cancer types incl. MCF7, T47D, MDA-MB-231, MCF10.DCIS.COM; cited from earlier work

O[C@@H]1[C@H](NCc2ccccc2)CCC[C@H]1Oc1ccccc1Oc1ccc(Cl)cc1 [23/G4]
effect on MDA-MB-231 tumor growth (MDA-MB-231 tumor growth): minor effects | effectiveness in CAM assay (MDA-MB-231 metastasis; concentration of 0.5 mM): minimally effective | inhibition of metastasis (MDA-MB-231 metastasis; higher concentrations 0.75 mM, 1 mM, 2 mM, CAM assay): 70-75% | % Alive (chick embryo; 0.5 mM): 70% | % Dead (chick embryo; 0.5 mM): 30% | Alive (chick embryo; 0.5 mM): 7 | Dead (chick embryo; 0.5 mM): 3 | % Alive (chick embryo; 0.75 mM): 71.43% | % Dead (chick embryo; 0.75 mM): 28.57% | Alive (chick embryo; 0.75 mM): 10 | Dead (chick embryo; 0.75 mM): 4 | % Alive (chick embryo; 1 mM): 80% | % Dead (chick embryo; 1 mM): 20% | Alive (chick embryo; 1 mM): 12 | Dead (chick embryo; 1 mM): 3 | % Alive (chick embryo; 2 mM): 66.67% | % Dead (chick embryo; 2 mM): 33.33% | Alive (chick embryo; 2 mM): 10 | Dead (chick embryo; 2 mM): 5 | inhibition of 3D-mammosphere formation, active concentration range (MCF7 cells): low micro-molar range | blocking of cell migration, active concentration range (MDA-MB-231 cells): low micro-molar range

CC[C@H]1OC(=O)[C@H](C)[C@@H](O[C@H]2C[C@@](C)(OC)[C@@H](O)[C@H](C)O2)[C@H](C)[C@@H](O[C@@H]2O[C@H](C)C[C@H](N(C)C)[C@H]2O)[C@](C)(O)C[C@@H](C)CN(C)[C@H](C)[C@@H](O)[C@]1(C)O [Azithromycin]
inhibition of anchorage-independent propagation of CSCs [1]: effectively inhibit

C(=CC[P+](c1ccccc1)(c1ccccc1)c1ccccc1)C[P+](c1ccccc1)(c1ccccc1)c1ccccc1 [Bis-TPP, butene-1,4-bis-triphenyl-phosphonium]
effect on MDA-MB-231 cancer metastasis (MDA-MB-231 metastasis; CAM assay in chicken eggs, treated daily for 8 days): functional prevention of cancer metastasis; also recorded: significantly prevented metastasis | % Alive (chick embryo; 0.5 mM): 58.33% | % Dead (chick embryo; 0.5 mM): 41.67% | Alive (chick embryo; 0.5 mM): 7 | Dead (chick embryo; 0.5 mM): 5 | pIC50 (MCF7 cells; read-out: IC-50, inhibition of 3D-mammosphere formation): > 6.30
